From patent US8450357B2, “Compositions comprising an aryl pyrazole and/or a formamidine, methods and uses thereof” (Merial Limited, priority 2008, dated 2013)

Tests used:
Type in all cases: in vivo
[1] = tested on: Rhipicephalus sanguineus ticks; assay: Study C: tick efficacy of Compound 1 and fipronil alone and with amitraz in dogs
Experimental: The effectiveness of Compound 1 alone, fipronil alone, Compound 1 in combination with amitraz, or fipronil in combination with amitraz, when administered once as topical solutions to dogs against induced infestations of Rhipicephalus sanguineus and Ctenocephalides felis were determined in a third clinical study. Thirty-six beagles (18 males and 18 females) were selected for the study. Six replicates of 6 animals each were formed. Treatment Group 1 dogs were treated with a placebo. Treatment Groups 2, 3, 4, 5 and 6 received their respective treatments as a topical spot-on application once on Day 0. Each formulation included diethyleneglycol monoethyl ether (transcutol) as carrier. The Treatment Groups were: Treatment Group 2: fipronil at 0.1 mL/kg body weight (10 mg/kg); Treatment Group 3: Compound 1 at 0.1 mL/kg (10 mg/kg) body weight; Treatment Group 4: Compound 1 at 0.2 mL/kg (20 mg/kg) body weight; Treatment Group 5: Compound 1 at 0.1 mL/kg (10 mg/kg) body weight plus amitraz at 0.04 mL/kg (8 mg/kg) body weight; Treatment Group 6: fipronil at 0.1 mL/kg (10 mg/kg) body weight plus amitraz at 0.04 mL/kg (8 mg/kg) body weight. Treatment was applied by parting the hair and applying the formulation(s) directly onto the skin on one spot at the midline of the neck, except for Groups 4, 5 and 6 which were applied in approximately equal volumes on two spots, one spot between the base of the skull and the shoulder blades and the other at the front of the shoulder blades.
All dogs were infested with approximately 50 Rhipicephalus sanguineus ticks on Days −1, 7, 14, 21, 28, 35, 42, 49 and 56. Dogs were also infested with approximately 100 Ctenocephalides felis fleas on Days −1, 8, 15, 22, 29, 36, 43, 50 and 57. […] Tables 8 and 9 below show the % efficacy of formulations comprising fipronil at 0.1 ml/kg of body weight, Compound 1 at […], and fipronil and Compound 1 both at 10 ml/kg in combination with amitraz at 0.04 ml/kg of body weight compared to control group without active compounds. The percent reduction in flea counts of the treated groups with respect to the Control group over the study is shown in FIG. 14.

Ctenocephalides felis = assay: Study D: flea efficacy of Compound 1 and fipronil in cats
Experimental: A fourth clinical study was conducted to determine the efficacy of topically administered Compound 1 and fipronil against induced infections of Ctenocephalides felis in cats. Twenty four cats (17 males, 7 females) were included in the study. Six replicates of four cats each were formed based on decreasing Day −5 flea counts. Within replicates, cats were randomly allocated to Treatment Groups 1, 2, 3 or 4, respectively, by using a die: Group 1—untreated (vehicle control); Group 2—Compound 1 (10 mg/kg); Group 3—Compound 1 (20 mg/kg); Group 4—fipronil (10 mg/kg). Treatment was performed by topical administration of the formulations in the midline of the neck, between the base of the skull and the shoulder blades in a single spot after parting the hair. Animals were observed hourly for approximately four hours following treatment.
The cats were infested with approximately 100 Ct. felis fleas each during acclimation on Day −6 for allocation purposes, and on Days −1, 14, 21, 28, 35 and 42 for treatment efficacy evaluation purposes. The fleas were removed by combing each cat approximately 24 hours following each infestation except for the Day −1 infestation which was followed by flea removal and count on Day 1 (˜48 hours following infestation).

[2] = tested on: adult brown dog ticks (Rhipicephalus sanguineus); assay: Tick DMSO contact assay, Compound 1 with amitraz, Example 15; conditions: for Synergistic Ratio (EC50): EC50 alone divided by EC50 with Amitraz (12.5 ppm); for Synergistic Ratio (EC90): EC90 alone divided by EC90 with Amitraz (12.5 ppm)
Experimental: Dosages were serially diluted using this same formulation.
Scintillation vials were treated with commercial and experimental compounds using the same procedure described in Example 12 above. The treated vials were used to determine the contact toxicity of compounds against adult brown dog ticks (Rhipicephalus sanguineus). The ticks were supplied by Ecto Services Inc. Henderson, N.C.
Unfed adult ticks were released into a metal pan and 10 living ticks were aspirated into each vial. […] Two replicates were tested for each treatment and the results were averaged. Ticks were stimulated by gently exhaling in the vials. Within the same time period, the addition of amitraz to an equal dosage of compound 1 increased mean mortality.

Question: Which “% Efficacy (Tick Efficacy)” value ([1]; Day 1, 10 mg/kg) does the source give for `Cc1c([S+]([O-])C(F)(Cl)Cl)c(C#N)nn1-c1c(F)cc(C(F)(F)F)cc1Cl` (stereo not drawn) [Compound 1, 3-cyano-1-(2-chloro-6-fluoro-4-trifluoromethylphenyl)-4-dichlorofluoromethylsulfinyl-5-methyl-1H-pyrazole] here?
Answer: 88.1%

Question: And the “% Efficacy (Tick Efficacy)” value ([1]; Day 1, 20 mg/kg)?
Answer: 98.6%

Question: And the “% Efficacy (Tick Efficacy)” value ([1]; Day 2, 10 mg/kg)?
Answer: 96.8%

Question: What about the “% Efficacy (Tick Efficacy)” value ([1]; Day 2, 20 mg/kg) of the same compound?
Answer: 98.9%

Question: What about the “% Efficacy (Tick Efficacy)” value ([1]; Day 8, 10 mg/kg) of the same compound?
Answer: 93.5%

Question: What about the “% Efficacy (Tick Efficacy)” value ([1]; Day 8, 20 mg/kg) of the same compound?
Answer: 98.6%

Question: And the “% Efficacy (Tick Efficacy)” value ([1]; Day 9, 10 mg/kg)?
Answer: 97.7%

Question: What about the “% Efficacy (Tick Efficacy)” value ([1]; Day 9, 20 mg/kg) of the same compound?
Answer: 100%

Question: What about the “% Efficacy (Tick Efficacy)” value ([1]; Day 15, 10 mg/kg) of the same compound?
Answer: 98.5%

Question: And the “% Efficacy (Tick Efficacy)” value ([1]; Day 15, 20 mg/kg)?
Answer: 99.3%

Question: And the “% Efficacy (Tick Efficacy)” value ([1]; Day 16, 10 mg/kg)?
Answer: 100%

Question: And the “% Efficacy (Tick Efficacy)” value ([1]; Day 16, 20 mg/kg)?
Answer: 100%

Question: And the “% Efficacy (Tick Efficacy)” value ([1]; Day 23, 10 mg/kg)?
Answer: 98.4%

Question: What about the “% Efficacy (Tick Efficacy)” value ([1]; Day 23, 20 mg/kg) of the same compound?
Answer: 100%

Question: What about the “% Efficacy (Tick Efficacy)” value ([1]; Day 30, 10 mg/kg) of the same compound?
Answer: 99%

Question: And the “% Efficacy (Tick Efficacy)” value ([1]; Day 30, 20 mg/kg)?
Answer: 99.5%

Question: And the “% Efficacy (Tick Efficacy)” value ([1]; Day 37, 10 mg/kg)?
Answer: 94.3%

Question: And the “% Efficacy (Tick Efficacy)” value ([1]; Day 37, 20 mg/kg)?
Answer: 98.6%

Question: What about the “% Efficacy (Tick Efficacy)” value ([1]; Day 44, 10 mg/kg) of the same compound?
Answer: 92.4%

Question: And the “% Efficacy (Tick Efficacy)” value ([1]; Day 44, 20 mg/kg)?
Answer: 92.3%

Question: What about the “% Efficacy (Tick Efficacy)” value ([1]; Day 51, 10 mg/kg) of the same compound?
Answer: 84.7%

Question: And the “% Efficacy (Tick Efficacy)” value ([1]; Day 51, 20 mg/kg)?
Answer: 86.5%

Question: And the “% Efficacy (Tick Efficacy)” value ([1]; Day 58, 10 mg/kg)?
Answer: 83.1%

Question: And the “% Efficacy (Tick Efficacy)” value ([1]; Day 58, 20 mg/kg)?
Answer: 87.4%

Question: And the “% Efficacy against fleas” value (Ctenocephalides felis; Day 1, 10 mg/kg)?
Answer: 99.84%

Question: And the “% Efficacy against fleas” value (Ctenocephalides felis; Day 1, 20 mg/kg)?
Answer: 100%

Question: What about the “% Efficacy against fleas” value (Ctenocephalides felis; Day 15, 10 mg/kg) of the same compound?
Answer: 99.81%

Question: What about the “% Efficacy against fleas” value (Ctenocephalides felis; Day 15, 20 mg/kg) of the same compound?
Answer: 100%

Question: What about the “% Efficacy against fleas” value (Ctenocephalides felis; Day 22, 10 mg/kg) of the same compound?
Answer: 100%

Question: What about the “% Efficacy against fleas” value (Ctenocephalides felis; Day 22, 20 mg/kg) of the same compound?
Answer: 100%

Question: And the “% Efficacy against fleas” value (Ctenocephalides felis; Day 29, 10 mg/kg)?
Answer: 100%

Question: What about the “% Efficacy against fleas” value (Ctenocephalides felis; Day 29, 20 mg/kg) of the same compound?
Answer: 100%

Question: And the “% Efficacy against fleas” value (Ctenocephalides felis; Day 36, 10 mg/kg)?
Answer: 99.43%

Question: And the “% Efficacy against fleas” value (Ctenocephalides felis; Day 36, 20 mg/kg)?
Answer: 100%

Question: And the “% Efficacy against fleas” value (Ctenocephalides felis; Day 43, 10 mg/kg)?
Answer: 97.28%

Question: And the “% Efficacy against fleas” value (Ctenocephalides felis; Day 43, 20 mg/kg)?
Answer: 100%

Question: And the “Synergistic Ratio (EC50)” value ([2]; 6 hour Eval)?
Answer: 11

Question: What about the “Synergistic Ratio (EC90)” value ([2]; 6 hour Eval) of the same compound?
Answer: >5.72

Question: And the “Synergistic Ratio (EC50)” value ([2]; 24 hour Eval)?
Answer: 135.3

Question: And the “Synergistic Ratio (EC90)” value ([2]; 24 hour Eval)?
Answer: 111.4

Question: And the “Synergistic Ratio (EC50)” value ([2]; 48 hour Eval)?
Answer: 133.1

Question: What about the “Synergistic Ratio (EC90)” value ([2]; 48 hour Eval) of the same compound?
Answer: 50.3
